Source: ChEMBL document CHEMBL5252560 (Bioorg Med Chem Lett, 2023)
The source made the active and inactive calls. The rule behind the calls is not given here.

Experiments:
HepG2 [1] = test: Induction of cell cycle arrest in human HepG2 cells assessed as accumulation of cells at S phase at 50 nM incubated for 12 hrs by propidium iodide staining based flow cytometric analysis (reference value: 22.36%); format: functional
HepG2 [2] = test: Induction of cell cycle arrest in human HepG2 cells assessed as accumulation of cells at G1 phase at 50 nM by propidium iodide staining based flow cytometric analysis (reference value: 72.08 %); format: functional
HepG2 [3] = test: Induction of cell cycle arrest in human HepG2 cells assessed as accumulation of cells at S phase at 50 nM by propidium iodide staining based flow cytometric analysis (reference value: 19.34%); format: functional
Tubulin (Homo sapiens) [4] = molecular target: T1, Tubulin (Homo sapiens) (UniProt P68371+Q9H4B7+P0DPH7+P68366+Q13509+Q71U36+P04350+Q3ZCM7+P07437+P68363+Q9BQE3+Q6PEY2+Q13885+Q9BVA1+Q9BUF5); test: Disruption of microtubule assembly in human HepG2 cells assessed as changes in cell morphology at 100 nM by immunofluorescence analysis; format: cell-based
Tubulin (Homo sapiens) [5] = molecular target: T1, Tubulin (Homo sapiens); test: Inhibition of tubulin (unknown origin) polymerization assessed as reduction in fluorescence intensity at 4 uM; format: protein-complex assay
Y79 = test: Antiproliferative activity against human Y79 cells assessed as cell growth inhibition; format: functional, cell-based
U-937 = test: Antiproliferative activity against human U-937 cells assessed as cell growth inhibition; format: functional, cell-based
HepG2 [6] = test: Induction of cell cycle arrest in human HepG2 cells assessed as accumulation of cells at G2 phase at 50 nM incubated for 6 hrs by propidium iodide staining based flow cytometric analysis (reference value: 15.06%); format: functional
HepG2 [7] = test: Inhibition of cell migration in human HepG2 cells at 25 to 100 nM incubated for 48 hrs by wound healing assay; format: functional, cell-based; details: dose 25-100 nM
HepG2 [8] = test: Induction of cell cycle arrest in human HepG2 cells assessed as accumulation of cells at G2 phase at 50 nM incubated for 12 hrs by propidium iodide staining based flow cytometric analysis (reference value: 15.06%); format: functional
HepG2 [9] = test: Induction of cell cycle arrest in human HepG2 cells assessed as accumulation of cells at G2 phase at 25 nM by propidium iodide staining based flow cytometric analysis (reference value: 8.58%); format: functional
HepG2 [10] = test: Induction of cell cycle arrest in human HepG2 cells assessed as accumulation of cells at G1 phase at 50 nM incubated for 6 hrs by propidium iodide staining based flow cytometric analysis (reference value: 62.58%); format: functional
HepG2 [11] = test: Induction of cell cycle arrest in human HepG2 cells assessed as accumulation of cells at G2 phase at 50 nM incubated for 24 hrs by propidium iodide staining based flow cytometric analysis (reference value: 15.06%); format: functional
Tubulin (Homo sapiens) [12] = molecular target: T1, Tubulin (Homo sapiens); test: Disruption of microtubule assembly in human HepG2 cells assessed as loss of microtubule structure at 100 nM by immunofluorescence analysis; format: cell-based
HepG2 [13] = test: Induction of cell cycle arrest in human HepG2 cells assessed as accumulation of cells at G1 phase at 100 nM by propidium iodide staining based flow cytometric analysis (reference value: 72.08 %); format: functional
A549 = test: Antiproliferative activity against human A549 cells assessed as cell growth inhibition; format: functional, cell-based
HepG2 [14] = test: Antiproliferative activity against human HepG2 cells assessed as cell growth inhibition; format: functional, cell-based
HepG2 [15] = test: Inhibition of cell invasion in human HepG2 cells by transwell invasion assay; format: functional, cell-based; details: dose 25-100 nM
HepG2 [16] = test: Induction of cell cycle arrest in human HepG2 cells assessed as accumulation of cells at G2 phase at 50 nM by propidium iodide staining based flow cytometric analysis (reference value: 8.58%); format: functional
HepG2 [17] = test: Induction of cell cycle arrest in human HepG2 cells assessed as accumulation of cells at G2 phase at 100 nM by propidium iodide staining based flow cytometric analysis (reference value: 8.58%); format: functional
HepG2 [18] = test: Induction of cell cycle arrest in human HepG2 cells assessed as accumulation of cells at G1 phase at 50 nM incubated for 12 hrs by propidium iodide staining based flow cytometric analysis (reference value: 62.58%); format: functional
HepG2 [19] = test: Induction of cell cycle arrest in human HepG2 cells assessed as accumulation of cells at S phase at 50 nM incubated for 6 hrs by propidium iodide staining based flow cytometric analysis (reference value: 22.36%); format: functional
HepG2 [20] = test: Induction of cell cycle arrest in human HepG2 cells assessed as accumulation of cells at G1 phase at 25 nM by propidium iodide staining based flow cytometric analysis (reference value: 72.08 %); format: functional
HepG2 [21] = test: Induction of apoptosis in human HepG2 cells by AnnexinV-FITC/PI-staining based flow cytometry; format: functional, cell-based; details: dose 25-100 nM
HepG2 [22] = test: Induction of cell cycle arrest in human HepG2 cells assessed as accumulation of cells at S phase at 25 nM by propidium iodide staining based flow cytometric analysis (reference value: 19.34%); format: functional
HepG2 [23] = test: Induction of cell cycle arrest in human HepG2 cells assessed as accumulation of cells at G1 phase at 50 nM incubated for 24 hrs by propidium iodide staining based flow cytometric analysis (reference value: 62.58%); format: functional
HepG2 [24] = test: Induction of cell cycle arrest in human HepG2 cells assessed as accumulation of cells at S phase at 50 nM incubated for 24 hrs by propidium iodide staining based flow cytometric analysis (reference value: 22.36%); format: functional
HepG2 [25] = test: Induction of cell cycle arrest in human HepG2 cells assessed as accumulation of cells at S phase at 100 nM by propidium iodide staining based flow cytometric analysis (reference value: 19.34%); format: functional

COc1cc(C(/C=C/c2ccc3[nH]ccc3c2)=N/O)cc(OC)c1OC
Activity (HepG2 [1]): 17.79% | Activity (HepG2 [2]): 56.33% | Activity (HepG2 [3]): 4.81% | Activity (Tubulin (Homo sapiens) [4]): Active | inhibition (Tubulin (Homo sapiens) [5]): Active | IC50 (Y79): 251 nM | IC50 (U-937): 138 nM | Activity (HepG2 [6]): 17.98% | inhibition (HepG2 [7]): Active | Activity (HepG2 [8]): 25.73% | Activity (HepG2 [9]): 23.54% | Activity (HepG2 [10]): 63.46% | Activity (HepG2 [11]): 26.95% | Activity (Tubulin (Homo sapiens) [12]): Active | Activity (HepG2 [13]): 6% | IC50 (A549): 271 nM | IC50 (HepG2 [14]): 65 nM | inhibition (HepG2 [15]): Dose-Dependent Effect | Activity (HepG2 [16]): 38.86% | Activity (HepG2 [17]): 70.39% | Activity (HepG2 [18]): 56.18% | Activity (HepG2 [19]): 18.56% | Activity (HepG2 [20]): 71.68% | Activity (HepG2 [21]): Dose-Dependent Effect | Activity (HepG2 [22]): 4.78% | Activity (HepG2 [23]): 60.13% | Activity (HepG2 [24]): 26.95% | Activity (HepG2 [25]): 23.61%
